For 14 compounds, EC50 results are on record in PubChem BioAssay AID651547 (The Scripps Research Institute Molecular Screening Center, 2012).

Molecules are shown by their SMILES. Active and inactive are the calls of the source.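 Rule for the calls: active = potency, meaning EC50, at or under 10 µM; inactive = the rest.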

For orientation: EC50 means the concentration giving half of the maximal effect.

For the assay, the target named is Melanocortin receptor 4 (Homo sapiens) (UniProt P32245). In words: activators of MC4R Gs-cAMP pathway – cell-based, FRET, agonists, late-stage follow-up (AID 651547). The following applies: MC4R-expressing cells, cAMP TR-FRET (LANCE Ultra), agonist. (In general: TR-FRET usually uses a lanthanide donor and a delayed reading to cut background.)
Chain of Melanocortin receptor 4 (Homo sapiens) (P32245 whole entry, looked up): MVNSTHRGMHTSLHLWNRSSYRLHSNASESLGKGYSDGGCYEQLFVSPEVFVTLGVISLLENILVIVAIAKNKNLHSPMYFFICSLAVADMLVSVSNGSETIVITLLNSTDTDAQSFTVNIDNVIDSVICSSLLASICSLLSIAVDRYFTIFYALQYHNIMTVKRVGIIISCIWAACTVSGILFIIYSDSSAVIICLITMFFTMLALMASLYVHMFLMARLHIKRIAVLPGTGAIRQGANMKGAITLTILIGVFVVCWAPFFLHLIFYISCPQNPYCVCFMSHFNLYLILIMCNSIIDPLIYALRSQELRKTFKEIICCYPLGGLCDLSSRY

On to `CCC1CCCCN1S(=O)(=O)c1ccc(NC(=O)c2cccc(S(C)(=O)=O)c2)cc1` (centres undefined), for which the EC50 was > 50 µM (inactive).

Turning to `CCC1CCCCN1S(=O)(=O)c1ccc(NC(=O)c2ccccc2)cc1` (centres undefined), the EC50 was > 50 µM (inactive).

In the case of `C#CC(=O)N(c1ccc(OC)c(OC)c1)C(C(=O)NC1CCCC1)c1cccs1` (centres undefined), the EC50 is > 50 µM (inactive).

In the case of `CC1CCCCN1S(=O)(=O)c1ccc(NC(=O)c2nc(S(C)(=O)=O)ncc2Cl)cc1` (centres undefined), the EC50 is > 50 µM (inactive).

Consider `CC(=O)c1ccc(Nc2nc3ccc(C(=O)N(CCC(C)C)CCC(C)C)cc3n2CCCN2CCCCC2)cc1`, for which the EC50 is > 50 µM (inactive).

Take `COc1ccccc1C1(CCNC(C)c2cccs2)CCOC(C(C)C)C1` (centres undefined): the EC50 was > 50 µM (inactive).

For `O=C1c2cccc3cccc(c23)C(=O)N1CC1CCN(CC(O)COc2ccc3ccccc3c2)CC1` (centres undefined), the EC50 is > 50 µM (inactive).

On to `CCC1CCCCN1S(=O)(=O)c1ccc(NC(=O)c2ccnc(SC)n2)cc1` (centres undefined), for which the EC50 is > 50 µM (inactive).

Regarding `CNC(=O)c1cc(Oc2ccc(NCC(=O)Nc3ccc(Cl)c(C(F)(F)F)c3)cc2)ccn1`, the EC50 was > 50 µM (inactive).

For the compound `CNC(=O)c1cc(Oc2ccc(NC(=O)Nc3ccc(Cl)c(C(F)(F)F)c3)cc2)ccn1`, the EC50 is > 50 µM (inactive).

Regarding `CNC(=O)c1cc(Oc2ccc(NC(=O)CNc3ccc(Cl)c(C(F)(F)F)c3)cc2)ccn1`, the EC50 was > 50 µM (inactive).

For the compound `Cc1ccccc1CN1Cc2cnnn2-c2ccccc2C1C#N` (centres undefined), the EC50 is > 50 µM (inactive).

On to `CCC1CCCCN1S(=O)(=O)c1ccc(NC(=O)c2nc(S(C)(=O)=O)ncc2Cl)cc1` (centres undefined), for which the EC50 is > 50 µM (inactive).

With `COc1ccc(N(C(C)=O)C(C(=O)NC2CCCC2)c2cccs2)cc1OC` (centres undefined), the EC50 was > 50 µM (inactive).
